Assay results reported in patent publication US20220273662A1, “USE OF SILDENAFIL AND ROCK INHIBITORS FOR TREATING STROKE OR SEQUELAE FOLLOWING STROKE” (SOONCHUNHYANG UNIVERSITY INDUSTRY ACADEMY COOPERATION …, priority 2019, published 2022).
Structures can show the parent of a compound that is named as a salt.

Columns and labels:
Type in all cases: in vivo, Sprague-Dawley male rats
[1] = tested on: MCAo30 acute stroke (cerebral infarction) model; assay: Measurement of infarction volume (TTC staining) after middle cerebral artery occlusion; settings: relative to MCAo30 (100% stroke range basis); i.p. sildenafil citrate 20 mg/kg and/or GSK429286A 10 mg/kg, 30 min before or after reperfusion; combination value for both before/after groups
Procedure: 8-week-old Sprague-Dawley male rats weighing 260 to 280 g were used as experimental animals, and the experimental animals were obtained from the Experimental Animal Center, at Soonchunhyang University (Cheonan). All experimental animals were arbitrarily provided with commercially available feed and water under specific temperature, humidity and lighting conditions (light-dark cycle 12:12, 22±2° C., 55±5%). All animal protocols were approved by the Administrative Panel on Laboratory Animal Care of Soonchunhyang University (permit No. SCH16-0024). In performing experiments related to the present invention, all possible efforts were made to prevent the suffering of the experimental animals and to minimize the number of experimental animals used during the experiments. […] Finally, images were produced from TTC-stained coronal section brain slices using a model DP72 digital camera and DP2-BSW microscope digital camera software (Olympus, Japan), the area of ischemic brain damage in each brain slice was measured using image analysis software (ImageJ, NIH, USA). […] The volume of total cerebral infarction was the sum of the core and the ischemic penumbra, the damaged volume was calculated as an average percentage of the hemispherical volume, and the volume of edema was adjusted with reference to the results of previous studies. […]

[2] = tested on: MCAo30 acute stroke (cerebral infarction) model; assay: Open field test (locomotor activity); settings: normal control = 100% (MCAo30 57.4%), combination given after reperfusion
Procedure: 8-week-old Sprague-Dawley male rats weighing 260 to 280 g were used as experimental animals, and the experimental animals were obtained from the Experimental Animal Center, at Soonchunhyang University (Cheonan). All experimental animals were arbitrarily provided with commercially available feed and water under specific temperature, humidity and lighting conditions (light-dark cycle 12:12, 22±2° C., 55±5%). […] In performing experiments related to the present invention, all possible efforts were made to prevent the suffering of the experimental animals and to minimize the number of experimental animals used during the experiments. […] More specifically, the following experimental drugs were each intraperitoneally administered 30 minutes before reperfusion after middle cerebral artery occlusion and 30 minutes after reperfusion after middle cerebral artery occlusion. i) sildenafil citrate (20 mg/kg/saline, Hanmi Parm. […] An open field black box (60×60×40 cm; length, width, height) was placed in an isolated room without clues, and the experimental animals were placed in the central area of the open field box under diffused light. The distance traveled by the experimental animals was recorded and analyzed for 30 minutes using Ethovision® software, which is a PC-based video motion analysis system. […]

[3] = tested on: MCAo30 acute stroke (cerebral infarction) model; assay: Light-dark box test (anxiety level); settings: normal control = 100% (MCAo30 62.08%), combination given after reperfusion
Procedure: 8-week-old Sprague-Dawley male rats weighing 260 to 280 g were used as experimental animals, and the experimental animals were obtained from the Experimental Animal Center, at Soonchunhyang University (Cheonan). All experimental animals were arbitrarily provided with commercially available feed and water under specific temperature, humidity and lighting conditions (light-dark cycle 12:12, 22±2° C., 55±5%). All animal protocols were approved by the Administrative Panel on Laboratory Animal Care of Soonchunhyang University (permit No. SCH16-0024). […] More specifically, the following experimental drugs were each intraperitoneally administered 30 minutes before reperfusion after middle cerebral artery occlusion and 30 minutes after reperfusion after middle cerebral artery occlusion. i) sildenafil citrate (20 mg/kg/saline, Hanmi Parm. Co., Republic of Korea) ii) GSK429286A (10 mg/kg/DMSO, Sigma, USA) iii) sildenafil citrate (20 mg/kg/saline) and GSK429286A (10 mg/kg/DMSO) A light-dark box (45×27×27 cm; length, width, height) was divided into two compartments, and more specifically, three-fifths was a bright compartment and two-fifths was a dark compartment. Each compartment was connected by a 9×9 cm entrance located on the floor. […] Here, sildenafil and the ROCK inhibitor were co-administered after reperfusion after middle cerebral artery occlusion.

[4] = tested on: MCAo30 acute stroke (cerebral infarction) model; assay: Measurement of fEPSP slope (synaptic plasticity, hippocampal CA1 LTP); settings: for fEPSP slope: MCAo30 84.11%
Procedure: 8-week-old Sprague-Dawley male rats weighing 260 to 280 g were used as experimental animals, and the experimental animals were obtained from the Experimental Animal Center, at Soonchunhyang University (Cheonan). All experimental animals were arbitrarily provided with commercially available feed and water under specific temperature, humidity and lighting conditions (light-dark cycle 12:12, 22±2° C., 55±5%). […] More specifically, the following experimental drugs were each intraperitoneally administered 30 minutes before reperfusion after middle cerebral artery occlusion and 30 minutes after reperfusion after middle cerebral artery occlusion. i) sildenafil citrate (20 mg/kg/saline, Hanmi Parm. Co., Republic of Korea) ii) GSK429286A (10 mg/kg/DMSO, Sigma, USA) iii) sildenafil citrate (20 mg/kg/saline) and GSK429286A (10 mg/kg/DMSO) Field potentials (fEPSP) were recorded at a slightly modified part from CA1 of the hippocampus. After a behavioral test, the animals were anesthetized intraperitoneally using urethane (1.5 g/kg) and placed in a stereotaxic frame. The rectal temperature during surgery was maintained at 37±0.3° C. using a temperature controller (Harvard Instruments, USA). Next, the scalp was opened and separated, and a hole was made through the skull to introduce electrodes. The coordinates (in mm) based on bregma (a junction of the coronal suture and the sagittal suture in the skull) are as follows. […] The depth of the electrodes was finally determined by observing whether the induced response was optimized. The fEPSP was adjusted to about 60% of the maximum response size for testing, and stimuli were generated by a BNC-2110 apparatus (National Instruments, USA) and a Digital Stimulus Isolation unit (Getting Instruments, CA, USA). The response of pyramidal neurons to the Schaffer collateral stimulus was recorded using a [MUT].C. pre-amplifier (3-1000 Hz bandpass, Astro-Med Inc.) and analyzed using […] . […] A stable baseline was recorded for 30 minutes to 60 minutes. […] The response of fEPSP for the age-matched control was also measured using the same method.

[5] = tested on: MCAo30 acute stroke (cerebral infarction) model; assay: Barnes maze test (cognitive function, escape time); settings: compared to normal control, MCAo30 about 3-fold longer than normal control
Procedure: All experimental animals were arbitrarily provided with commercially available feed and water under specific temperature, humidity and lighting conditions (light-dark cycle 12:12, 22±2° C., 55±5%). […] Co., Republic of Korea) ii) GSK429286A (10 mg/kg/DMSO, Sigma, USA) iii) sildenafil citrate (20 mg/kg/saline) and GSK429286A (10 mg/kg/DMSO) A Barnes maze consisted of a circular platform (122 cm in diameter) with 20 holes around the same distance and elevated 105 cm from the floor. Four different visual cues were placed on each quadrant wall surrounding the platform at a height that makes it easy to observe experimental animals, and one hole (escape hole) in the quadrant area includes an escape chamber under the platform. Further, bedding was added to the escape chamber for the safety of experimental animals. […] More specifically, a metronome was used to generate 80 Hz noise and to maintain the illuminance measured at the center of the platform at 300 lux. […] 10 seconds later, when the cylinder was removed, the experimental animal explored the platform from the center and this activity was recorded by a video camera. […] The distance and duration traveled from the quadrant area where the escape chamber connected to the escape hole is located was analyzed by Ethovision® software, and the waiting time to reach the escape chamber connected to the escape hole was manually analyzed.

CCCc1nn(C)c2c(=O)[nH]c(-c3cc(S(=O)(=O)N4CCN(C)CC4)ccc3OCC)nc12 [sildenafil, sildenafil citrate]
damage to brain tissue after the onset of stroke (infarction volume) [1]: 26.71% | locomotor activity [2]: 70.8% | time in which rats stayed in a bright place compared to the normal control [3]: 63.63% | fEPSP slope ([4]; administered after reperfusion after middle cerebral artery occlusion): 158.31% | fEPSP slope ([4]; administered before reperfusion after middle cerebral artery occlusion): 102.35% | fold improved fEPSP slope, group after reperfusion compared to group before reperfusion ([4]; sildenafil alone, after vs before reperfusion): about 4.06 fold

CC1=C(C(=O)Nc2cc3cn[nH]c3cc2F)C(c2ccc(C(F)(F)F)cc2)CC(=O)N1 (stereo not shown) [ROCK inhibitor, N-(6-fluoro-1H-indazol-5-yl)-6-methyl-2-oxo-4-[4-(trifluoromethyl)phenyl]-3,4-dihydro-1H-pyridine-5-carboxamide]
damage to brain tissue after the onset of stroke (infarction volume) [1]: 21.28% | locomotor activity [2]: 71% | time in which rats stayed in a bright place compared to the normal control [3]: 84.26% | escape time (in words) [5]: level similar to that of the normal control
